Test results as given in US20250255874A1, “Methods for Treating Immune Thrombocytopenia By Administering (R)-2-[3-[4-Amino-3-(2-Fluoro-4-Phenoxy-Phenyl)Pyrazolo[3,4-D]Pyrimidin-1-YL]Piperidine-1-Carbonyl]-4-Methyl-4-[4-(Oxetan-3-YL)Piperazin-1-YL]Pent-2-Enentrile” (Principia Biopharma Inc., priority 2022, published 2025).

What was measured:
[1] = tested on: patients with immune thrombocytopenia who initiated 400 mg BID; assay: Clinical predictors of response, exploratory analysis of Phase 1/2 study (univariate logistic regression); type: in vivo, human
Description: Clinical predictors were selected based on clinical considerations anticipated to be associated with platelet response and evaluated by univariate logistic regression models. For continuous variables, the t test was used to test for differences, whereas for categorical variables, the Fisher exact test was used. PK exposure at steady-state was estimated based on post hoc analysis from a previously established population PK model.

[2] = tested on: spontaneous canine pemphigus foliaceus; assay: spontaneous canine pemphigus foliaceus; conditions: dog, in vivo

CC(C)(C=C(C#N)C(=O)N1CCC[C@@H](n2nc(-c3ccc(Oc4ccccc4)cc3F)c3c(N)ncnc32)C1)N1CCN(C2COC2)CC1 [rilzabrutinib, (R)-2-[3-[4-amino-3-(2-fluoro-4-phenoxy-phenyl)pyrazolo[3,4-d]pyrimidin-1-yl]piperidine-1-carbonyl]-4-methyl-4-[4-(oxetan-3-yl)piperazin-1-yl]pent-2-enenitrile]
early responders, proportion of patients ([1]; patients who received prior rituximab): 14% | early responders, proportion of patients ([1]; patients with no prior rituximab): 48% | responders, proportion of patients ([1]; patients with prior rituximab): 23% | responders, proportion of patients ([1]; patients without prior TPO-RA): 64% | responders, proportion of patients ([1]; patients without prior rituximab): 57% | anti-inflammatory effects [2]: rapid and significant anti-inflammatory effects
